We go through 21 compounds from ChEMBL document CHEMBL3046698, “Synergistic application of target structure-based alignment and 3D-QSAR study of protein tyrosine phosphatase 1B (PTP1B) inhibitors” (Med Chem Res, 2011).

Values joined by “and” are separate entries in the source; they are usually repeats but may differ in a detail not shown here. Equal entries are not always repeated.

The Ki is a dissociation constant, usually derived from enzyme kinetics or from competition with a known ligand. High values mean a looser hold on the target, low ones a stronger hold on the target.

The assay concerns the target T1, Tyrosine-protein phosphatase non-receptor type 1 (Homo sapiens, UniProt P18031).
T1 sequence (P18031 whole entry): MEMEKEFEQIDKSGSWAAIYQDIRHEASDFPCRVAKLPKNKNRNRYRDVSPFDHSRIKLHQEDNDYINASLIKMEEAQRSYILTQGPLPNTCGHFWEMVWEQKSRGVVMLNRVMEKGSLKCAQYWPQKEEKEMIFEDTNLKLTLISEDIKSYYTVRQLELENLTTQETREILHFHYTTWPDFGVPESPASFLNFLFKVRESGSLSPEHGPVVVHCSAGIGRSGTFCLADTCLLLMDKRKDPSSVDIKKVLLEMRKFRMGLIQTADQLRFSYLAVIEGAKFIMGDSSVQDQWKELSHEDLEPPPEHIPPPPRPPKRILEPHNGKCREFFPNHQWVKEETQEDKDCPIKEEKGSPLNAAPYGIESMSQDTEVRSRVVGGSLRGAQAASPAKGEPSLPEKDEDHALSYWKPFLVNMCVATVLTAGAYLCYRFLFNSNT
Description: Inhibition of PTP1B (unknown origin)
As to `COC(=O)c1c(O)cccc1OCCCCNC(=O)[C@H](Cc1ccc(OC(C)C(=O)O)c(C(=O)O)c1)NC(=O)[C@H](Cc1ccccc1)NC(=O)OC(C)(C)C` (stereo partly specified), the affinity corresponds to a Ki of 0.162 µM.

`CCc1cc(C[C@H](NC(C)=O)C(=O)NCCCCC(=O)NCCc2ccccc2)ccc1N(C(=O)C(=O)O)c1ccccc1C(=O)O`: the Ki was 3.39 µM and 3.4 µM.

In the case of `CCc1cc(C[C@H](NC(C)=O)C(=O)NCCCCC(=O)NC(Cc2ccccc2)C(N)=O)ccc1N(C(=O)C(=O)O)c1ccccc1C(=O)O` (stereo partly specified), the Ki is 1.29 µM and 1.3 µM.

`CCc1cc(C[C@H](NC(C)=O)C(=O)N[C@H](CCSC)C(=O)O)ccc1N(C(=O)C(=O)O)c1ccccc1C(=O)O`: the Ki was 1.74 µM and 1.7 µM.

`CCc1cc(C[C@H](NC(C)=O)C(=O)NCc2ccc(Cl)cc2)ccc1N(C(=O)C(=O)O)c1ccccc1C(=O)O` had a Ki of 1.2 µM.

With `CCc1cc(C[C@H](NC(C)=O)C(=O)NCc2ccc(OC)cc2)ccc1N(C(=O)C(=O)O)c1ccccc1C(=O)O`, the Ki was 4.79 µM and 4.7 µM.

Turning to `COC(=O)c1c(O)cccc1OCCCCNC(=O)[C@H](Cc1ccc(OC(C(N)=O)C(=O)O)cc1)NC(=O)OC(C)(C)C` (stereo partly specified), the Ki was 13.8 µM.

For `CC(=O)C(=O)N(c1ccccc1C(=O)O)c1cccc(C)c1C`, the Ki is 93.3 µM and 93 µM.

Take `CC(=O)C(=O)N(c1ccccc1C(=O)O)c1cccc2ccccc12`: the affinity, expressed as Ki, was 24 µM.

Regarding `CC(=O)C(=O)N(c1ccc2ccccc2c1)c1ccccc1C(=O)O`, the Ki is 38.9 µM and 39 µM.

Regarding `CC(=O)C(=O)N(c1ccccc1C(=O)O)c1cccc2ccc(O)cc12`, the Ki is 17 µM.

On to `CC(=O)C(=O)N(c1ccccc1C(=O)O)c1cccc2c1CCCC2`, for which the Ki was 74.1 µM and 74 µM.

Take `CCc1ccccc1N(C(=O)C(C)=O)c1ccccc1C(=O)O`: the Ki was 60.3 µM and 60 µM.

Take `CC(=O)C(=O)N(c1ccccc1C(=O)O)c1ccccc1C(C)C`: the Ki was 35.5 µM and 35 µM.

The compound `CC(=O)C(=O)N(c1ccccc1Cc1ccccc1)c1ccccc1C(=O)O` showed a Ki of 24 µM.

`CC(=O)C(=O)N(c1ccccc1CCO)c1ccccc1C(=O)O` showed a Ki of 17 µM.

The compound `CC(=O)C(=O)N(c1ccccc1/C=C/C(N)=O)c1ccccc1C(=O)O` had a Ki of 11 µM.

Turning to `CC(=O)C(=O)N(c1ccccc1C(=O)O)c1ccccc1N1CCCCC1`, the Ki was 14.1 µM and 14 µM.

In the case of `COC(=O)c1c(O)cccc1OCCCCNC(=O)C(Cc1ccc(N(CC(C(=O)O)c2ccccc2)C(=O)C(=O)O)cc1)NC(=O)OC(C)(C)C` (stereo unspecified), the Ki was 15.1 µM and 15.2 µM.

On to `CCC(CC(=O)O)N(C(=O)C(=O)O)c1ccc(CC(NC(=O)OC(C)(C)C)C(=O)NCCCCOc2cccc(O)c2C(=O)OC)cc1` (stereo unspecified), for which the Ki was 1.82 µM and 1.8 µM.

The compound `COC(=O)c1c(O)cccc1OCCCCNC(=O)[C@H](Cc1ccc(OC(C(=O)O)C(=O)NC2CC2)cc1)NC(=O)OC(C)(C)C` (stereo partly specified) showed a Ki of 8.51 µM. In other words, the single-digit micromolar range.
